Molecules are shown by their SMILES.

The subject of the assay is benzodiazepine receptors. The assay is described as follows: in vivo displacement of 3H-flunitrazepam from brain benzodiazepine receptors in mice. Particulars: female NMR mice, i.p.; 3H-FNM i.v. 15 min after test substance; forebrain 20 min later; dose inhibiting 50% of specific 3H-FNM binding. The text has this: The pharmaceutical properties of the compounds of the invention can be illustrated by determining their capability for displacing radioactive labelled flunitrazepam from benzodiazepine receptors.
The displacement activity of the compounds of the invention may be found by determining the ED50 value. The ED50 value represents the dose (mg/kg) of a test substance which causes the specific binding of flunitrazepam to benzodiazepine receptors in a living brain to be reduced to 50% of the control value.
Such an in vivo test is carried out as follows:
Principle. Twenty minutes after a dose of ^3 H-flunitrazepam (^3 H-FNM) (200 μCi/kg, i.v.) the amount of specific ^3 H-FNM binding to brain benzodiazepine receptors has reached its maximal value.
Test procedure. Suspensions of test substances (2 mg/ml) are prepared in 5% Duphasol-X (TM Duphar, castor oil-ethylene oxide derivative for emulsifying and solubilizing oil and other water-insoluble substances) by sonification for 10 min using a Branson B15 microtip ultrasonifier (setting 7). Groups of three mice (female, NMR, 18-22 grams) are injected with the test substance at 100 mg/kg intraperitoneally. Fifteen minutes after test substance administration the mice are challenged with 4 μCi intravenously of ^3 H-FNM (70-90) Ci/mole) in 200 μl physiological saline. Twenty minutes after ^3 H-FNM administration mice are sacrificed by decapitation, the forebrains rapidly excised (within 30 sec) and homogenized in 12 ml of icecold 25 mM KH2 PO4, pH 7.1, using an Ultra-Turrax homogenizer fitted with an N 10 shaft. […] The amounts of radioactivity on the filters are determined by conventional scintillation counting. […]
Results. The ED50 value is determined from dose response curves. If only one dose of test substance is administered the ED50 value is calculated as follows, provided that the inhibition of specific binding is within the range of 25-75%: [formula] where Co is specific binding in controls and Cx is specific binding in mice treated with test substance.
Turning to `CC(C)n1c(=O)c2c(-c3cc(C4CC4)on3)ncn2c2ccccc21` [Compound 8, 3-(5-cyclopropyl-3-isoxazolyl)-4,5-dihydro-5-isopropyl-4-oxo-imidazo[1,5-a]quinoxaline], the ED50 was 1,8 mg/kg.

On to `COc1cccc(Cn2c(=O)c3c(-c4cc(C)no4)ncn3c3ccccc32)c1` [Compound 27, 4,5-dihydro-5-(3-methoxybenzyl)-3-(3-methyl-5-isoxazolyl)-4-oxo-imidazo[1,5-a]quinoxaline], for which the ED50 is 0,45 mg/kg.

`CC(C)=CCn1c(=O)c2c(-c3cc(C)no3)ncn2c2ccccc21` [Compound 29, 4,5-dihydro-5-(3,3-dimethylallyl)-3-(3-methyl-5-isoxazolyl)-4-oxo-imidazo[1,5-a]quinoxaline]: the ED50 is 0,37 mg/kg.
